Experimental data published in paper PMC12392461, “Beyond Estrogenicity: A Comparative Assessment of Bisphenol A and Its Alternatives in In Vitro Assays Questions Safety of Replacements” (Environmental Science & Technology, 2025).
Where two headings read alike, the source gives them in different places.

Legend:
[1] = test system: ERα; conditions: cited from earlier work
[2] = experimental; ref Lehner 1993; cited from earlier work
[3] = test system: PPARγ; design: method as in Crosthwait et al. 2025; Sun et al. 2025; conditions: ref Crosthwait et al. 2025; Sun et al. 2025; cited from earlier work
[4] = test system: ERα; test: Literature ERα reporter gene assays (comparison); format: cell-based; conditions: for EC10, approx.: in M (unit assumed)
Method: S5.4: Comparison with literature data for ERα reporter gene assays
To improve data comparability with our own results we converted reported EC₅₀ to EC₁₀ by dividing by 9, which is the ratio for log-logistic concentration-response curves with a hillslope of 1 (Figure S9a). Additionally, REPBPA values were calculated to enable a more consistent evaluation. Methodological differences between studies must be considered, as Reiniger et al.24 used the YES assay, while Goksøyr et al.25 applied ERα from fish (Figure S9b).
Cyan symbols highlight the ER-UAS-bla GripTite (this study and Tox21GenBLA).
(1 picture or pasted object on this page, not shown here)

[5] = test system: Tox21 assays; conditions: cited from earlier work
[6] = test system: Tox21 assays; test: Re-evaluated Tox21 data (Adamovsky et al.), REPBPA and SRbaseline; conditions: for SRbaseline: Specificity Ratio;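 on all read-outs here: published Tox21 results reanalysed with a revised model predicting baseline toxicity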
Description: (§1) We also reanalyzed the Tox21 data of Adamovsky et al. with the updated baseline toxicity prediction model (Table S2).

[7] = test system: Tox21 assays
Description: as §1

[8] = approximated from literature EC50, ref Reiniger et Oehlmann 2024
[9] = approximated from literature values, ref Kojima et al 2019
[10] = relative estrogenic potency vs BPA, ref Kojima et al 2019
[11] = TOX21_CAR_Antagonist, re-evaluated Tox21 data, ref Adamovsky et al 2024
[12] = TOX21_PPARg_BLA_antagonist_ratio, re-evaluated Tox21 data, ref Adamovsky et al 2024
[13] = Tox21BLA, ref Adamovsky et al. 2024
[14] = Tox21Luc, ref Adamovsky et al. 2024

O=C(OCc1ccccc1)c1ccc(O)cc1 [BzPB, Benzyl 4-hydroxybenzoate]
Efficacy % ([1]; ref Pelch et al 2019): 19.70% | predicted or literature experimental log Kow [2]: 3.56

C=CCOc1ccc(S(=O)(=O)c2ccc(O)cc2)cc1 [BPS-MAE, 4-[[4-(Allyloxy)phenyl]sulfonyl]phenol]
Efficacy % ([1]; ref Pelch et al 2019): 10.30% | PPARγ transactivation reported in the literature [3]: weaker effects

Oc1ccc(C(c2ccc(O)cc2)(C(F)(F)F)C(F)(F)F)cc1 [BPAF, 4,4'-(1,1,1,3,3,3-Hexafluoropropane-2,2-diyl)diphenol]
EC10, approx. ([4]; Atlantic cod estrogen receptor, approximated from literature EC50, ref Goksøyr et al 2024): ~2.56E-08 | REPBPA ([4]; Atlantic cod estrogen receptor, ref Goksøyr et al 2024): 8.26E+00 | EC10, approx. ([4]; approximated from literature EC50, ref Pelch et al 2019): ~1.44E-08 | EC10, approx. [4, 8]: ~4.82E-08 | EC10, approx. [4, 9]: ~4.30E-08 | REPBPA [4, 10]: 8.49E-01 | REPBPA ([4]; relative estrogenic potency vs BPA, ref Pelch et al 2019): 9.23E+00 | REPBPA ([4]; relative estrogenic potency vs BPA, ref Reiniger et Oehlmann 2024): 5.21E+00 | EC10 ([5]; TOX21_AR_LUC_MDAKB2_Antagonist_0,5nM_R1881, re-evaluated Tox21 data, ref Adamovsky et al 2024): 2.92e-06 M | EC10 ([5]; TOX21_CAR_Agonist, re-evaluated Tox21 data, ref Adamovsky et al 2024): 5.35e-06 M | EC10 [5, 11]: 4.23e-07 M | EC10 [5, 12]: 5.75e-06 M | EC10 [5, 13]: 2.07E-07 | EC10 [5, 14]: 1.10E-08 | EC50 ([1]; estrogen receptor from Atlantic cod (Gadus morhua), ref Goksøyr et al 2024): 0.23 µM | EC50 ([1]; ref Kojima et al 2019): 0.39 µM | EC50 ([1]; ref Pelch et al 2019): 0.13 µM | Efficacy % ([1]; ref Pelch et al 2019): 91.50% | EC50 ([1]; ref Reiniger et Oehlmann 2024): 0.434 µM | Efficacy % ([1]; ref Reiniger et Oehlmann 2024): 8.21E+01% | REPBPA,ERα reported in the literature ([1]; ref Text S5.4, Tables S2 and S7): 3–5 | PPARγ transactivation reported in the literature [3]: No agonism was detected | REPBPA ([6]; TOX21_AR_LUC_MDAKB2_Antagonist_0,5nM_R1881, Relative Effect Potency): 0.83 | SRbaseline ([6]; TOX21_AR_LUC_MDAKB2_Antagonist_0,5nM_R1881): 22.15 | REPBPA ([6]; TOX21_CAR_Agonist, Relative Effect Potency): 0.26 | SRbaseline ([6]; TOX21_CAR_Agonist): 12.10 | REPBPA ([6]; TOX21_CAR_Antagonist, Relative Effect Potency): 1.29 | SRbaseline ([6]; TOX21_CAR_Antagonist): 153.1 | SRbaseline ([6]; TOX21_PPARg_BLA_antagonist_ratio): 11.28 | REPBPA [6, 13]: 2.86E+00 | REPBPA [6, 14]: 1.23E+00

Cc1ccc(S(=O)(=O)NC(=O)Nc2ccc(Cc3ccc(NC(=O)NS(=O)(=O)c4ccc(C)cc4)cc3)cc2)cc1 [BTUM, 4,4'-Bis(p-tolylsulfonylureido)diphenylmethane]
PPARγ transactivation reported in the literature [3]: weaker effects

CC(C)(c1cc(Br)c(O)c(Br)c1)c1cc(Br)c(O)c(Br)c1 [TBBPA, 3,3',5,5'-Tetrabromobisphenol A]
REPBPA [7]: 29.73 | SRbaseline [7]: 90.68 | REPBPA ([7]; ATG_PPARg_TRANS_up, Relative Effect Potency): 3.44 | SRbaseline ([7]; ATG_PPARg_TRANS_up, Specificity Ratio): 12.11 | REPBPA ([7]; ATG_hPPARg_XSP1_up, Relative Effect Potency): 2.58 | SRbaseline ([7]; ATG_hPPARg_XSP1_up, Specificity Ratio): 11.21 | REPBPA ([7]; ATG_hPPARg_XSP2_up, Relative Effect Potency): 6.45 | SRbaseline ([7]; ATG_hPPARg_XSP2_up, Specificity Ratio): 28.04 | EC10 ([5]; ATG_PPARg_TRANS_up, re-evaluated Tox21 data, ref Adamovsky et al 2024): 4.64e-07 M | EC10 ([5]; ATG_hPPARg_XSP1_up, re-evaluated Tox21 data, ref Adamovsky et al 2024): 5.02e-07 M | EC10 ([5]; ATG_hPPARg_XSP2_up, re-evaluated Tox21 data, ref Adamovsky et al 2024): 2e-07 M | EC10 [5, 12]: 6.2e-08 M

CC(c1ccccc1)(c1ccc(O)cc1)c1ccc(O)cc1 [BPAP, 4,4'-(1-Phenylethylidene)bisphenol]
EC10, approx. [4, 8]: ~1.04E-07 | EC10, approx. [4, 9]: ~1.45E-07 | REPBPA [4, 10]: 2.52E-01 | EC10 [5, 11]: 1.11e-06 M | EC50 ([1]; ref Kojima et al 2019): 1.9 µM | Efficacy % ([1]; ref Pelch et al 2019): 45.40% | EC50 ([1]; ref Reiniger et Oehlmann 2024): 0.932 µM | Efficacy % ([1]; ref Reiniger et Oehlmann 2024): 1.06E+02% | REPBPA ([6]; ATG_NRF2_ARE_CIS_up, Relative Effect Potency): 3.88 | SRbaseline ([6]; ATG_NRF2_ARE_CIS_up): 15.59 | SRbaseline ([6]; TOX21_CAR_Antagonist): 27.45

O=S(=O)(c1ccc(O)cc1)c1ccccc1O [2,4-BPS, 2,4'-Dihydroxydiphenyl sulfone]
PPARγ transactivation reported in the literature [3]: No agonism was detected

Cc1ccc(S(=O)(=O)NC(=O)Nc2cccc(OS(=O)(=O)c3ccc(C)cc3)c2)cc1 [Pergafast, N-(p-toluenesulfonyl)-N'-(3-(p-toluenesulfonyloxy)phenyl)urea]
PPARγ transactivation reported in the literature [3]: weaker effects
